Assays:
Assay in all cases: relative viability (nuclei count vs DMSO), 5 days (fraction); higher = more cells survive
Idelalisib + Trametinib = compound: CC[C@H](Nc1ncnc2[nH]cnc12)c1nc2cccc(F)c2c(=O)n1-c1ccccc1 [Idelalisib] + CC(=O)Nc1cccc(-n2c(=O)n(C3CC3)c(=O)c3c(Nc4ccc(I)cc4F)n(C)c(=O)c(C)c32)c1 [Trametinib] (partner 0.02 µM)
How it was run: (§1)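 The day after seeding in 1536-well plates, lung cancer cell lines were treated by pin tool with a single drug, or with a fixed anchor-drug dose together with five library-drug doses (not always all listed) in √10 steps. After 5 days, a combined fix-and-stain solution (final 0.05% Triton X-100, 1% formaldehyde, 1 ug/ml Hoechst) was added. Nuclei counted on 4× images gave relative viability as treated counts over vehicle counts, reported as the median of duplicate plates.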

Pemetrexed + Phenformin = compound: Nc1nc2[nH]cc(CCc3ccc(C(=O)N[C@@H](CCC(=O)O)C(=O)O)cc3)c2c(=O)[nH]1 [Pemetrexed] + N=C(N)NC(=N)NCCc1ccccc1 [Phenformin] (partner 250 µM)
How it was run: as §1

Pemetrexed + Foretinib = compound: Nc1nc2[nH]cc(CCc3ccc(C(=O)N[C@@H](CCC(=O)O)C(=O)O)cc3)c2c(=O)[nH]1 [Pemetrexed] + COc1cc2c(Oc3ccc(NC(=O)C4(C(=O)Nc5ccc(F)cc5)CC4)cc3F)ccnc2cc1OCCCN1CCOCC1 [Foretinib] (partner 0.25 µM)
How it was run: as §1

Idelalisib + Olaparib = compound: CC[C@H](Nc1ncnc2[nH]cnc12)c1nc2cccc(F)c2c(=O)n1-c1ccccc1 [Idelalisib] + O=C(c1cc(Cc2n[nH]c(=O)c3ccccc23)ccc1F)N1CCN(C(=O)C2CC2)CC1 [Olaparib] (partner 8 µM)
How it was run: as §1

Cell Line	relative viability (Idelalisib + Trametinib; first compound 0.04 µM)	relative viability (Idelalisib + Trametinib; first compound 0.1265 µM)	relative viability (Idelalisib + Trametinib; first compound 0.4 µM)	relative viability (Idelalisib + Trametinib; first compound 1.265 µM)	relative viability (Idelalisib + Trametinib; first compound 4 µM)	relative viability (Pemetrexed + Phenformin; first compound 0.002 µM)	relative viability (Pemetrexed + Phenformin; first compound 0.006325 µM)	relative viability (Pemetrexed + Phenformin; first compound 0.02 µM)	relative viability (Pemetrexed + Phenformin; first compound 0.06325 µM)	relative viability (Pemetrexed + Phenformin; first compound 0.2 µM)	relative viability (Pemetrexed + Foretinib; first compound 0.002 µM)	relative viability (Pemetrexed + Foretinib; first compound 0.006325 µM)	relative viability (Pemetrexed + Foretinib; first compound 0.02 µM)	relative viability (Pemetrexed + Foretinib; first compound 0.06325 µM)	relative viability (Pemetrexed + Foretinib; first compound 0.2 µM)	relative viability (Idelalisib + Olaparib; first compound 0.04 µM)	relative viability (Idelalisib + Olaparib; first compound 0.1265 µM)	relative viability (Idelalisib + Olaparib; first compound 0.4 µM)	relative viability (Idelalisib + Olaparib; first compound 1.265 µM)	relative viability (Idelalisib + Olaparib; first compound 4 µM)
LOU-NH91	0.85	0.803	0.718	0.751	0.781	0.691	0.733	0.739	0.572	0.404	0.941	0.915	0.992	0.709	0.434	0.986	0.936	0.856	0.848	0.912
NCI-H2009	0.297	0.232	0.201	0.228	0.179	0.466	0.494	0.539	0.47	0.477	1.2	1.28	1.29	1.2	1.11	0.639	0.712	0.672	0.74	0.516
NCI-H358	0.191	0.146	0.149	0.129	0.148	0.334	0.359	0.31	0.166	0.132	0.624	0.747	0.56	0.223	0.149	0.562	0.586	0.522	0.606	0.516
NCI-H2126	0.602	0.602	0.542	0.575	0.485	0.536	0.555	0.574	0.507	0.486	1.02	1.19	1.29	0.565	1.03	0.933	0.916	0.834	0.972	0.898
ChaGo-K-1	0.945	0.907	0.865	0.906	0.913	0.497	0.495	0.507	0.332	0.217	0.991	0.919	0.948	0.529	0.301	0.347	0.399	0.472	0.38	0.379
NCI-H1437	0.561	0.547	0.461	0.545	0.354		0.348	0.281	0.196	0.163		1.2	1.07	0.796	0.413	0.618	0.636	0.634	0.658	0.607
SK-LU-1	0.422	0.467	0.394	0.492	0.414	0.497	0.497	0.626	0.547	0.534	0.71	0.888	0.923	0.783	0.801	0.584	0.492	0.41	0.424	0.464
NCI-H838	0.53	0.551	0.432	0.511	0.372	0.616	0.546	0.792	0.379	0.155	1.01	0.912	1.16	0.91	0.267	0.779	0.794	0.745	0.775	0.564
NCI-H1755	0.764	0.773	0.745	0.674	0.732	0.594	0.409	0.647	0.627	0.507	0.871	0.925	0.94	0.923	0.849	0.881	0.892	0.842	0.801	0.821
NCI-H2228	0.49	0.684	0.429	0.583	0.381	0.308		0.268	0.2	0.184	0.71		0.993	0.633	0.302	0.911	0.985	0.589	0.871	0.538
NCI-H1915	0.281	0.291	0.291	0.317	0.265	0.358	0.39	0.373	0.357	0.381	1.04	1.05	1.11	1.07	1.11	0.252	0.241	0.276	0.264	0.27
NCI-H2347	0.267	0.282	0.246	0.278	0.229	0.203	0.369	0.484	0.412	0.387	0.841	1.06	1.19	0.739	0.558	0.591	0.659	0.528	0.644	0.464
HARA	0.78	0.773		0.593	0.671	0.402	0.447	0.508	0.297	0.137	0.856	0.87	1	0.846	0.393	0.738	0.998		0.758	0.792
NCI-H2085	0.569	0.299	0.382	0.369	0.327	0.664	0.685	0.735	0.808	0.779	1.03	0.737	1.11	0.966	1.17	0.642	0.743	0.767	0.741	0.677
NCI-H650	1.08	0.928	0.888	1.09	0.848	0.406	0.468	0.457	0.428	0.469	1.07	0.97	1.08	0.988	1.02	0.414	0.441	0.362	0.334	0.37
NCI-H727	0.423	0.457	0.34	0.394	0.387		0.484	0.474	0.633	0.525	0.823	0.902	0.87	0.838	0.966	0.813	0.624	0.688	0.779	0.836
